Experimental data as given in article PMC6556873, “Rapid Covalent-Probe Discovery by Electrophile-Fragment Screening” (Journal of the American Chemical Society, 2019).
Where two headings read alike, the source gives them in different places.

Columns and labels:
in vitro [1] = assay: in vitro; design: species or system CCD841, HEK293; details: human, hb2 cells, read-out: HB-2 Cells Viability (%)
BSA = molecular target: T1, BSA (Bos taurus, UniProt P02769); design: Intact protein LC/MS covalent labelling, fragments in pools of five, 200 uM each, 4 °C; details: 24 h, 4 °C, pool of five; 200 µM; covalent
T1 construct: gene ALB

PCAF = molecular target: T2, PCAF (Homo sapiens, UniProt Q92831); design: Intact protein LC/MS covalent labelling, fragments in pools of five, 200 uM each, 4 °C; details: 24 h, 4 °C, pool of five; 200 µM; covalent
T2 construct: gene KAT2B

NUDT7 = molecular target: T3, NUDT7 (Homo sapiens, UniProt P0C024); design: Intact protein LC/MS covalent labelling, fragments in pools of five, 200 uM each, 4 °C; details: 24 h, 4 °C, pool of five; 200 µM; covalent
T3 construct: residues 14-235, E. coli, pNIC28-Bsa4, N-terminal His6 tag removed by TEV, construct 26672 Da

OTUB2 (OTUB2A) = molecular target: T4, OTUB2 (OTUB2A) (Homo sapiens, UniProt Q96DC9); design: Intact protein LC/MS covalent labelling, fragments in pools of five, 200 uM each, 4 °C; details: 24 h, 4 °C, pool of five; 200 µM; covalent
T4 construct: full length residues 1-234, E. coli BL21(DE3)-R3, His tag removed by TEV, construct 27312 Da
T4 sequence (Q96DC9 1-234): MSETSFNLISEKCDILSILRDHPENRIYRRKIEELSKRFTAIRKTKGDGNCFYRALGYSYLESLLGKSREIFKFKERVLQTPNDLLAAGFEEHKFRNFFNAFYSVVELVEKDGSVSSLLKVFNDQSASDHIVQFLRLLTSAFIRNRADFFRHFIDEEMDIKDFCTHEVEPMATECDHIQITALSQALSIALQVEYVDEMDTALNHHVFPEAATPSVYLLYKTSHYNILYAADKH

in vitro [2] = assay: in vitro; design: species or system HB2, CCD841; details: human, hek293 cells
in vitro [3] = assay: in vitro; design: species or system HB2, HEK293; details: human, ccd841 cells

T3 sequence (P0C024 14-235): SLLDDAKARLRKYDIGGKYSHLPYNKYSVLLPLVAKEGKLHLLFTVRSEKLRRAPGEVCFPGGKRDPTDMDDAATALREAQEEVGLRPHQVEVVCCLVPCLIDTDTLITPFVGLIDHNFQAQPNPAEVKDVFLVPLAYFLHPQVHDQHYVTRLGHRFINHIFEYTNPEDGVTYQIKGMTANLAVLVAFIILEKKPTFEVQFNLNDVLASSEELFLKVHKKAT
T1 sequence (P02769 whole entry, the tested form may be a part): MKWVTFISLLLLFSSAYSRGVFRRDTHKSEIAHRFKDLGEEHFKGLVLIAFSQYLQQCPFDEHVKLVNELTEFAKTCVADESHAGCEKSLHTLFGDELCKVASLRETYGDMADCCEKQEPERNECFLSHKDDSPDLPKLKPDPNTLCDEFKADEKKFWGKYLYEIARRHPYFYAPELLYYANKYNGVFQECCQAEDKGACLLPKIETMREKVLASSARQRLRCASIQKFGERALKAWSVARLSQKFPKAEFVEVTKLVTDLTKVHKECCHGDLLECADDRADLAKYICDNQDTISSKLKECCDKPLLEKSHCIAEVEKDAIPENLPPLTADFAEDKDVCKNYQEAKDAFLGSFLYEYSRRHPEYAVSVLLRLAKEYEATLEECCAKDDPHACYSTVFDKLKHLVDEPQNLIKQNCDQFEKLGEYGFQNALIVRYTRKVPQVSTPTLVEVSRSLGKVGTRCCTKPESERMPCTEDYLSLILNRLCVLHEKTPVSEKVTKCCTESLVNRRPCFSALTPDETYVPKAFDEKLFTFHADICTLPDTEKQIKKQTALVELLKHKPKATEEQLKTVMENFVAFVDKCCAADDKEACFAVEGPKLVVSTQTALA
T2 sequence (Q92831 whole entry, the tested form may be a part): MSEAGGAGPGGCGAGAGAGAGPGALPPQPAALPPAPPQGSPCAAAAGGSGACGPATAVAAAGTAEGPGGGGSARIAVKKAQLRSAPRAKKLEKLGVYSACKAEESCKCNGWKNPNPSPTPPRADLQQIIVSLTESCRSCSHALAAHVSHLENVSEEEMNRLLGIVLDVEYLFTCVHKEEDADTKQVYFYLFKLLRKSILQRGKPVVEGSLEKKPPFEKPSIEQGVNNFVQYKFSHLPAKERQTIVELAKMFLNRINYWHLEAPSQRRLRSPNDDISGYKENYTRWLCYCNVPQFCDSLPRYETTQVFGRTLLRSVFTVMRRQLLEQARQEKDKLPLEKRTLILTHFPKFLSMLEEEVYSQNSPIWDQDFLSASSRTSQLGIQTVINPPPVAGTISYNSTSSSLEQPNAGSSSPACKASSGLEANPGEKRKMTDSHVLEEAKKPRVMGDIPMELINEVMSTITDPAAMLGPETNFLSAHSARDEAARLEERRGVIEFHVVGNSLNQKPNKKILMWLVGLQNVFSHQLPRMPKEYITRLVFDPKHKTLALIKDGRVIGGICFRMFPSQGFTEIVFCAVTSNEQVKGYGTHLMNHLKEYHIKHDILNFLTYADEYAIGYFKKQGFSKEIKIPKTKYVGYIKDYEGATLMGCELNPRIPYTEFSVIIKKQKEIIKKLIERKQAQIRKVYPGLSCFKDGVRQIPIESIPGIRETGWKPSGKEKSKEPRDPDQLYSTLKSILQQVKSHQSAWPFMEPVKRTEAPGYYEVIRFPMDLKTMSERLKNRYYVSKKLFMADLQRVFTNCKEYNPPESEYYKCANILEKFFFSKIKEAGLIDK

Structure (SMILES) | viability at 48 h, 10 µM (in vitro [1]) [%] | BSA (BSA) | PCAF (PCAF) | NUDT7 (NUDT7) | OTUB2 (OTUB2 (OTUB2A)) | viability at 48 h, 10 µM (in vitro [2]) [%] | viability at 48 h, 10 µM (in vitro [3]) [%]
CCN1CCC(NC(=O)CCl)CC1.Cl [PCM-0102103] | 96 | 0 | 0 | 0 | 0 | 66.8 | 84.1
C=CC(=O)N1CC(C(=O)NC)C1 [PCM-0102843] | 104 | 0.23 | 0 | 0 | 0.1 | 94.1 | 114
CC(=O)c1ccc(N2CCN(C(=O)CCl)CC2)c(F)c1 [PCM-0102273] | 4.9 | 0 | 0 | 0.2 | 0 | 2.2 | 38.5
Cc1ccc(CN(C)C(=O)CCl)c(C)c1 [PCM-0102552] | 54.5 | 0 | 0 | 0.19 | 0 | 62.6 | 69.9
O=C(CCl)NC(=O)NC12CC3CC(CC(C3)C1)C2 [PCM-0102360] | 3.1 | 0 | 0 | 0 | 0.12 | 46.7 | 73.7
O=C(Nc1ccccc1)C1CCN(C(=O)CCl)CC1 [PCM-0102219] | 5.6 | 0 | 0 | 0 | 0 | 5.6 | 34.2
CC(C)(C)OC(=O)CNC(=O)CCl [PCM-0102981] | 106 | 0.18 | 0 | 0 | 0 | 106 | 109
CC(NC(=O)CCl)c1ccc2ccccc2c1 (stereo not shown) [PCM-0102350] | 66 | 0 | 0 | 0.31 | 0.47 | 58.5 | 70.6
Cc1ccc(CNC(=O)CCl)cc1F [PCM-0102959] | 86.6 | 0 | 0 | 0 | 0.5 | 62.6 | 84
C=CC(=O)N1CCCC(c2nc(-c3cccc(F)c3)no2)C1 (stereo not shown) [PCM-0102689] | 101 | 0 | 0 | 0 | 0 | 89.4 | 97.4
COC(=O)c1c(NC(=O)CCl)sc2c1CCCCC2 [PCM-0102200] | 49.5 | 0 | 0 | 0.11 | 0 | 21.8 | 80.8
O=C(CCl)N1CCCC1c1cccs1 (stereo not shown) [PCM-0102393] | 7.5 | 0 | 0 | 0.36 | 0 | 2.5 | 39
CCN(C(=O)CCl)C1CC1 [PCM-0102594] | 100 | 0 | 0 | 0 | 0 | 92.7 | 95.2
NS(=O)(=O)c1ccc(Cl)c(NC(=O)CCl)c1 [PCM-0103012] | 54.7 | 0 | 0 | 0 | 0.1 | 11.9 | 67.1
CN(C(=O)CCl)C(C)(C)C#N [PCM-0102782] | 95.9 | 0 | 0 | 0 | 0 | 77.7 | 92.5
CC(C)(C)C1CCc2sc(C(=O)NNC(=O)CCl)cc2C1 (stereo not shown) [PCM-0102260] | 64 | 0 | 0 | 0 | 0.67 | 10.2 | 29.7
